Columns and labels:
[1] = system: rabbit serum obtained by immunizing a rabbit with the SARS-CoV strain Frankfurt 1; type: binding; parameters: Binding of a rabbit serum to linear peptides / Binding of a rabbit serum to looped peptides / Rabbit serum linear peptides / Rabbit serum looped peptides / Binding of a rabbit serum to linear peptides of protein N of SARS-CoV Urbani (Rabbit serum linear peptides) / Binding of a rabbit serum to looped/cyclic peptides of protein N of SARS-CoV Urbani (Rabbit serum looped peptides): unit not given here
[2] = system: control sera (pooled serum of ten healthy LUMC hospital workers; commercial negative donor pooled serum from the Dutch bloodbank); type: binding, human; parameters: Binding of Control serum LUMC to linear peptides / Binding of Control serum Blood-bank to linear peptides / Binding of Control serum LUMC to looped peptides / Binding of Control Serum Blood-Bank to Looped peptides / Binding of Control serum LUMC to linear peptides of the protein M of SARS-CoV Urbani / Binding of Control serum Blood-bank to linear peptides of the protein M of SARS-CoV Urbani / Binding of Control serum LUMC to looped peptides of the protein M of SARS-CoV Urbani / Binding of Control Serum Blood-Bank to Looped peptides of the protein M of SARS-CoV Urbani: unit not given here
[3] = system: antibodies in sera from SARS patients (sera 1a, 1b, 2, 6, 37, 62, London, SARS-yellow, SARS-green); type: binding, human; parameters: Binding of serum 6 to linear peptides of protein X1 of SARS-CoV Urbani / Binding of serum 37 to linear peptides of protein X1 of SARS-CoV Urbani / Binding of serum 6 to looped/cyclic peptide (PEPSCAN-ELISA) / Binding of serum 37 to looped/cyclic peptide (PEPSCAN-ELISA) / Binding of serum 37 to looped/cyclic peptides of protein X1 of SARS-CoV Urbani / Binding of serum 6 to linear peptides of protein X2 / Binding of serum 37 to linear peptides of protein X2 / Binding of serum 37 to looped/cyclic peptides of protein X2 of SARS-CoV Urbani / Binding of serum 6 to linear peptides of protein M of SARS-CoV Urbani / Binding of serum 37 to linear peptides of protein M of SARS-CoV Urbani / Binding of serum 6 to looped/cyclic peptides of protein M of SARS-CoV Urbani / Binding of serum 37 to looped/cyclic peptides of protein M of SARS-CoV Urbani / Binding of serum 6 to linear peptides of protein X3 of SARS-CoV Urbani / Binding of serum 37 to linear peptides of protein X3 of SARS-CoV Urbani / Binding of serum 37 to looped/cyclic peptides of protein X3 of SARS-CoV Urbani / Binding of serum 6 to linear peptides of protein X4 of SARS-CoV Urbani / Binding of serum 37 to linear peptides of protein X4 of SARS-CoV Urbani / Binding of serum 37 to looped/cyclic peptides of protein X4 of SARS-CoV Urbani / Binding of serum 6 to linear peptides of protein X5 of SARS-CoV Urbani / Binding of serum 37 to linear peptides of protein X5 of SARS-CoV Urbani / Binding of serum 37 to looped/cyclic peptides of protein X5 of SARS-CoV Urbani / Binding of serum 6 to linear peptides of protein N of SARS-CoV Urbani / Binding of serum 37 to linear peptides of protein N of SARS-CoV Urbani / Binding of serum 6 to linear peptide (PEPSCAN-ELISA) / Binding of serum 1a to looped/cyclic peptides of protein N of SARS-CoV Urbani / Binding of serum 1b to looped/cyclic peptides of protein N of SARS-CoV Urbani / Binding of serum 2 to looped/cyclic peptides of protein N of SARS-CoV Urbani / Binding of serum 6 to looped/cyclic peptides of protein N of SARS-CoV Urbani / Binding of serum 37 to looped/cyclic peptides of protein N of SARS-CoV Urbani / Binding of serum 62 to looped/cyclic peptides of protein N of SARS-CoV Urbani / Binding of serum London to looped/cyclic peptides of protein N of SARS-CoV Urbani / Binding of serum SARS-green to looped/cyclic peptides of protein N of SARS-CoV Urbani: unit not given here

VIIRGHLRMAGHPLG
Rabbit serum linear peptides [1]: 0.4 | Rabbit serum looped peptides [1]: 0.6

DNASPASTVHATATI
Binding of a rabbit serum to linear peptides [1]: 0.7 | Binding of a rabbit serum to looped peptides [1]: 0.3

FICNLLLLFVTTYSH
Binding of Control Serum Blood-Bank to Looped peptides [2]: 0.5 | Binding of Control serum Blood-bank to linear peptides [2]: 0.6 | Binding of Control serum LUMC to linear peptides [2]: 0.5 | Binding of Control serum LUMC to looped peptides [2]: 0.5

IMRCWLCWKCKSKNP
Binding of serum 1a to looped/cyclic peptide (PEPSCAN-ELISA) [3]: 0.3 | Binding of serum 1b to looped/cyclic peptide (PEPSCAN-ELISA) [3]: 0.1 | Binding of serum 2 to looped/cyclic peptide (PEPSCAN-ELISA) [3]: 0.1 | Binding of serum 6 to looped/cyclic peptide (PEPSCAN-ELISA) [3]: 0.2 | Binding of serum 37 to looped/cyclic peptide (PEPSCAN-ELISA) [3]: 0.3 | Binding of serum 62 to looped/cyclic peptide (PEPSCAN-ELISA) [3]: 0.3 | Binding of serum London to looped/cyclic peptide (PEPSCAN-ELISA) [3]: 0.1 | Binding of serum SARS-green to looped/cyclic peptide (PEPSCAN-ELISA) [3]: 0.1 | Binding of serum SARS-yellow to looped/cyclic peptide (PEPSCAN-ELISA) [3]: 0.0 | Recognition of the peptide by sera of SARS-CoV infected individuals, and form (linear, looped/cyclic) in which it is recognized [3]: recognized in linear form | Binding of Control Serum Blood-Bank to Looped peptides [2]: 0.4 | Binding of Control serum Blood-bank to linear peptides [2]: 0.5 | Binding of Control serum LUMC to linear peptides [2]: 0.5 | Binding of Control serum LUMC to looped peptides [2]: 0.2

VHATATIPLQASLPF
Binding of a rabbit serum to linear peptides [1]: 0.1 | Binding of a rabbit serum to looped peptides [1]: 0.6

MVQTGTPNVTINCQD
Binding of Control Serum Blood-Bank to Looped peptides [2]: 0.3 | Binding of Control serum Blood-bank to linear peptides [2]: 0.8 | Binding of Control serum LUMC to linear peptides [2]: 0.6 | Binding of Control serum LUMC to looped peptides [2]: 0.3

TYEGNSPFHPLADNK
Rabbit serum linear peptides [1]: 0.7 | Rabbit serum looped peptides [1]: 0.4

LHEGHQTAAFRDVLV
Rabbit serum linear peptides [1]: 0.5 | Rabbit serum looped peptides [1]: 0.7

RCWLGWKCKSKNPLL
Binding of Control Serum Blood-Bank to Looped peptides [2]: 0.7 | Binding of Control serum Blood-bank to linear peptides [2]: 1.2 | Binding of Control serum LUMC to linear peptides [2]: 1.0 | Binding of Control serum LUMC to looped peptides [2]: 0.7

SPFHPLADNKFALTC
Rabbit serum linear peptides [1]: 0.4 | Rabbit serum looped peptides [1]: 0.5

IAMACIVGLMWLSYF
Binding of serum 1a to linear peptides of protein M of SARS-CoV Urbani [3]: 0.6 | Binding of serum 1a to looped/cyclic peptides of protein M of SARS-CoV Urbani [3]: 0.6 | Binding of serum 1b to linear peptides of protein M of SARS-CoV Urbani [3]: 0.5 | Binding of serum 1b to looped/cyclic peptides of protein M of SARS-CoV Urbani [3]: 0.4 | Binding of serum 2 to linear peptides of protein M of SARS-CoV Urbani [3]: 0.4 | Binding of serum 2 to looped/cyclic peptides of protein M of SARS-CoV Urbani [3]: 0.4 | Binding of serum 6 to linear peptides of protein M of SARS-CoV Urbani [3]: 0.3 | Binding of serum 6 to looped/cyclic peptides of protein M of SARS-CoV Urbani [3]: 0.7 | Binding of serum 37 to linear peptides of protein M of SARS-CoV Urbani [3]: 0.3 | Binding of serum 37 to looped/cyclic peptides of protein M of SARS-CoV Urbani [3]: 0.4 | Binding of serum 62 to linear peptides of protein M of SARS-CoV Urbani [3]: 0.3 | Binding of serum 62 to looped/cyclic peptides of protein M of SARS-CoV Urbani [3]: 0.4 | Binding of serum London to linear peptides of protein M of SARS-CoV Urbani [3]: 0.3 | Binding of serum London to looped/cyclic peptides of protein M of SARS-CoV Urbani [3]: 0.2 | Binding of serum SARS-green to linear peptides of protein M of SARS-CoV Urbani [3]: 0.3 | Binding of serum SARS-green to looped/cyclic peptides of protein M of SARS-CoV Urbani [3]: 0.3 | Binding of serum SARS-yellow to linear peptides of protein M of SARS-CoV Urbani [3]: 0.2 | Binding of serum SARS-yellow to looped/cyclic peptides of protein M of SARS-CoV Urbani [3]: 0.6 | Binding of Control Serum Blood-Bank to Looped peptides of the protein M of SARS-CoV Urbani [2]: 0.6 | Binding of Control serum Blood-bank to linear peptides of the protein M of SARS-CoV Urbani [2]: 0.5 | Binding of Control serum LUMC to linear peptides of the protein M of SARS-CoV Urbani [2]: 0.6 | Binding of Control serum LUMC to looped peptides of the protein M of SARS-CoV Urbani [2]: 0.7

GHPLGRCDIKDLPKE
Binding of Control Serum Blood-Bank to Looped peptides of the protein M of SARS-CoV Urbani [2]: 0.7 | Binding of Control serum Blood-bank to linear peptides of the protein M of SARS-CoV Urbani [2]: 0.6 | Binding of Control serum LUMC to linear peptides of the protein M of SARS-CoV Urbani [2]: 0.6 | Binding of Control serum LUMC to looped peptides of the protein M of SARS-CoV Urbani [2]: 0.7

Source: patent US20070128217A1 (priority 2003, published 2007)
